Reference: patent publication US20080014584A1, “MODULATING ANDROGEN RECEPTOR ACTIVITY” (MAYO FOUNDATION FOR MEDICAL EDUCATION AND RESEARCH, priority 2006, published 2008)

Experiments:
Format in all cases: cell-based
Details in all cases: 1 nM mibolerone, 24 hours
[1] = target: T1, AR (Homo sapiens, UniProt P10275, T878A); assay: PSAenh(ARE)-E4-LUC luciferase reporter assay in LNCaP cells; set-up: endogenous in cells
T1 sequence (P10275 1-920 T878A): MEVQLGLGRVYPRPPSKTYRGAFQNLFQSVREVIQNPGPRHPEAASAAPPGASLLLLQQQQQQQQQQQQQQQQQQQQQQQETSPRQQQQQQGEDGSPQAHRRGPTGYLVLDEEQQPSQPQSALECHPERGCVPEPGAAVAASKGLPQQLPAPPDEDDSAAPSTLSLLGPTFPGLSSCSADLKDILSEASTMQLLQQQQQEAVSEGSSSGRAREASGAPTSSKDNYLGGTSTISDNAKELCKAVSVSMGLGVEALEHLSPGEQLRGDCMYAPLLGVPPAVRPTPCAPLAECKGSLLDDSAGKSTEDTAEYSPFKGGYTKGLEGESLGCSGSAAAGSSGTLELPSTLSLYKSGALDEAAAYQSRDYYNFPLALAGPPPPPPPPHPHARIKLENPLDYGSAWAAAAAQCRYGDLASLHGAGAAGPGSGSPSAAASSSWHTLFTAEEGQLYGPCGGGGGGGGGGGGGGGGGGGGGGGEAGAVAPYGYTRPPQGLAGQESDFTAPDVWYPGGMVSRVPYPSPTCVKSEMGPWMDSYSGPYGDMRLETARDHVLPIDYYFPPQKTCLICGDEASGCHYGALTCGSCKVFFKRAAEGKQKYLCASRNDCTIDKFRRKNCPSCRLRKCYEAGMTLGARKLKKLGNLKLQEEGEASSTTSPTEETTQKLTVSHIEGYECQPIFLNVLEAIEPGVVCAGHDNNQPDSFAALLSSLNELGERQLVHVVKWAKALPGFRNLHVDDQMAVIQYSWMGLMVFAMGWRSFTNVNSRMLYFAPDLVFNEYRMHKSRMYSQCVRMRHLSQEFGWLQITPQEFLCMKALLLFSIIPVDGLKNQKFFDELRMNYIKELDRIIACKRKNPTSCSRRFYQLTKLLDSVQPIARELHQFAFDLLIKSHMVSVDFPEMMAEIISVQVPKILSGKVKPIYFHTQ
Procedure: The cells were harvested after an additional 24 hours. The transfection efficiency was typically 50-70%.

[2] = target: T1, AR; assay: PSA mRNA expression (Northern blot) in LNCaP cells; set-up: The androgen depletion independent (ADI) LNCaP-derived C4-2 cell line was purchased from UroCor; endogenous in cells; host or cells: C4-2
Procedure: (§1) For androgen response experiments, LNCaP and C4-2 cells were grown in serum-free medium or medium supplemented with 10% charcoal stripped (steroid depleted) serum (CSS) for 48 hours. […] The cells were cultured for an additional 24 hours and then harvested. For C4-2 siRNA-transfection experiments, culture medium was replaced 24 hours post-transfection with RPMI containing 5% CSS. The cells were harvested after 48 hours.
Total cellular RNA was isolated using acid-guanidinium phenol/chloroform extraction as described elsewhere (Chomczynski and Sacchi, Anal Biochem. 162:156-9, (1987)). Equal amounts of RNA (15 μg per lane) were fractionated on 1% denaturing formaldehyde-agarose gels. RNA was transferred to Hybond nylon membranes (Amersham, Piscataway, N.J.), UV cross-linked, and then hybridized with cDNA probes specific for PSA or GAPDH labeled with α^32P-dCTP using a RadPrime labeling kit (Invitrogen). Autoradiography was performed at −80° C. using an intensifier screen (Kodak).

[3] = target: T1, AR; assay: PSA mRNA expression (Northern blot) in C4-2 cells; set-up: The androgen depletion independent (ADI) LNCaP-derived C4-2 cell line was purchased from UroCor; endogenous in cells; host or cells: C4-2
Procedure: as §1
For siRNA transfections, C4-2 cells were seeded at a density of 1.8×10^6 cells on 10 cm dishes in antibiotic-free RPMI 1640 containing 10% FBS. Cells were transfected 24 hours later with 500 pmol of a pool of four siRNAs targeted to the AR (AR SmartPool; Dharmacon, Lafayette, Colo.), or a pool of four non-targeted, control siRNAs (Dharmacon) using 25 μg Lipofectamine (Invitrogen, Carlsbad, Calif.) according to the manufacturer's protocol.
Total cellular RNA was isolated using acid-guanidinium phenol/chloroform extraction as described elsewhere (Chomczynski and Sacchi, Anal Biochem. 162:156-9, (1987)). Equal amounts of RNA (15 μg per lane) were fractionated on 1% denaturing formaldehyde-agarose gels. RNA was transferred to Hybond nylon membranes (Amersham, Piscataway, N.J.), UV cross-linked, and then hybridized with cDNA probes specific for PSA or GAPDH labeled with α^32P-dCTP using a RadPrime labeling kit (Invitrogen). […]

**Q.** How did the “activation of the ARE-driven promoter PSAenh(ARE)E4-LUC” value [1] turn out when `C[C@@H]1CC2=CC(=O)CC[C@@H]2[C@H]2CC[C@@]3(C)[C@@H](CC[C@]3(C)O)[C@@H]21` [mibolerone] was run?
**A.** robust activation

**Q.** And the “PSA mRNA expression on androgen treatment” value [2]?
**A.** induced high levels of PSA mRNA expression

**Q.** And the “PSA expression on androgen treatment” value [3]?
**A.** further increased
